Measured values from the supplement of paper PMC4862054.

tested on: Hs578T; experiment: drug sensitivity score (DSS), CellTiter-Blue viability (DSS (AUC-based score)); higher = stronger viability inhibition; extreme values may be limits of the assay; settings: incubation time: 72 h
Outline: (§1)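 Each 384-well plate was normalised to two references, 0.1 % DMSO and a positive kill control. Breast cancer cell lines (20 µl suspension) had been seeded onto compound at 5 or 9 concentrations and incubated 72 h, after which viability was read by CellTiter-Blue fluorescence at 560/590 nm. The drug sensitivity score reflects the area under the fitted dose-response curve.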

Point of comparison: `CO[C@@]12[C@H](COC(N)=O)C3=C(C(=O)C(C)=C(N)C3=O)N1C[C@@H]1N[C@@H]12` [Mitomycin C], drug sensitivity score 4.97. Against it:
- CO[C@@H]1[C@H](N(C)C(=O)c2ccccc2)C[C@H]2O[C@]1(C)n1c3ccccc3c3c4c(c5c6ccccc6n2c5c31)C(=O)NC4 [Midostaurin] — higher, 14.9
- CCNC(=O)c1noc(-c2cc(C(C)C)c(O)cc2O)c1-c1ccc(CN2CCOCC2)cc1 [NVP-AUY922] — higher, 18.8
- CC1(C)CCC(c2ccc(Cl)cc2)=C(CN2CCN(c3ccc(C(=O)NS(=O)(=O)c4ccc(N[C@H](CCN5CCOCC5)CSc5ccccc5)c(S(=O)(=O)C(F)(F)F)c4)cc3)CC2)C1 [Navitoclax] — lower, 0
- Cc1cn(-c2cc(NC(=O)c3ccc(C)c(Nc4nccc(-c5cccnc5)n4)c3)cc(C(F)(F)F)c2)cn1 [Nilotinib] — lower, 0
- C=CCN(/C=C1/C(=O)O[C@H](COC)[C@@]2(C)C1=C(O)C(=O)C1=C2[C@H](OC(C)=O)C[C@]2(C)C(=O)CC[C@@H]12)CC=C [PX-866] — lower, 3.48
- CC[C@H](CO)Nc1nc(NCc2ccccc2)c2ncn(C(C)C)c2n1 [Roscovitine] — lower, 2.74

tested on: CAL-120; experiment: as above; settings: incubation time: 72 h
Outline: as §1

Point of comparison: `CC[C@H](CO)Nc1nc(NCc2ccccc2)c2ncn(C(C)C)c2n1` [Roscovitine], drug sensitivity score 0. Against it:
- COc1c2occc2cc2ccc(=O)oc12 [Methoxsalen] — the same, 0
- CO[C@@H]1[C@H](N(C)C(=O)c2ccccc2)C[C@H]2O[C@]1(C)n1c3ccccc3c3c4c(c5c6ccccc6n2c5c31)C(=O)NC4 [Midostaurin] — higher, 8.21
- CO[C@@]12[C@H](COC(N)=O)C3=C(C(=O)C(C)=C(N)C3=O)N1C[C@@H]1N[C@@H]12 [Mitomycin C] — higher, 2.85
- CCNC(=O)c1noc(-c2cc(C(C)C)c(O)cc2O)c1-c1ccc(CN2CCOCC2)cc1 [NVP-AUY922] — higher, 21.3
- CC1(C)CCC(c2ccc(Cl)cc2)=C(CN2CCN(c3ccc(C(=O)NS(=O)(=O)c4ccc(N[C@H](CCN5CCOCC5)CSc5ccccc5)c(S(=O)(=O)C(F)(F)F)c4)cc3)CC2)C1 [Navitoclax] — higher, 6.12
- Cc1cn(-c2cc(NC(=O)c3ccc(C)c(Nc4nccc(-c5cccnc5)n4)c3)cc(C(F)(F)F)c2)cn1 [Nilotinib] — the same, 0
- C=CCN(/C=C1/C(=O)O[C@H](COC)[C@@]2(C)C1=C(O)C(=O)C1=C2[C@H](OC(C)=O)C[C@]2(C)C(=O)CC[C@@H]12)CC=C [PX-866] — higher, 2.93

tested on: SK-BR-3; experiment: as above; settings: incubation time: 72 h
Outline: as §1

Point of comparison: `CC[C@H](CO)Nc1nc(NCc2ccccc2)c2ncn(C(C)C)c2n1` [Roscovitine], drug sensitivity score 0. Against it:
- COc1c2occc2cc2ccc(=O)oc12 [Methoxsalen] — the same, 0
- CO[C@@H]1[C@H](N(C)C(=O)c2ccccc2)C[C@H]2O[C@]1(C)n1c3ccccc3c3c4c(c5c6ccccc6n2c5c31)C(=O)NC4 [Midostaurin] — higher, 6.46
- CO[C@@]12[C@H](COC(N)=O)C3=C(C(=O)C(C)=C(N)C3=O)N1C[C@@H]1N[C@@H]12 [Mitomycin C] — higher, 9.21
- CCNC(=O)c1noc(-c2cc(C(C)C)c(O)cc2O)c1-c1ccc(CN2CCOCC2)cc1 [NVP-AUY922] — higher, 22.8
- CC1(C)CCC(c2ccc(Cl)cc2)=C(CN2CCN(c3ccc(C(=O)NS(=O)(=O)c4ccc(N[C@H](CCN5CCOCC5)CSc5ccccc5)c(S(=O)(=O)C(F)(F)F)c4)cc3)CC2)C1 [Navitoclax] — the same, 0
- Cc1cn(-c2cc(NC(=O)c3ccc(C)c(Nc4nccc(-c5cccnc5)n4)c3)cc(C(F)(F)F)c2)cn1 [Nilotinib] — the same, 0
- C=CCN(/C=C1/C(=O)O[C@H](COC)[C@@]2(C)C1=C(O)C(=O)C1=C2[C@H](OC(C)=O)C[C@]2(C)C(=O)CC[C@@H]12)CC=C [PX-866] — higher, 9.05

tested on: MFM-223; experiment: as above; settings: incubation time: 72 h
Outline: as §1

Point of comparison: `CC1(C)CCC(c2ccc(Cl)cc2)=C(CN2CCN(c3ccc(C(=O)NS(=O)(=O)c4ccc(N[C@H](CCN5CCOCC5)CSc5ccccc5)c(S(=O)(=O)C(F)(F)F)c4)cc3)CC2)C1` [Navitoclax], drug sensitivity score 2.7. Against it:
- COc1c2occc2cc2ccc(=O)oc12 [Methoxsalen] — lower, 0
- CO[C@@H]1[C@H](N(C)C(=O)c2ccccc2)C[C@H]2O[C@]1(C)n1c3ccccc3c3c4c(c5c6ccccc6n2c5c31)C(=O)NC4 [Midostaurin] — higher, 4.68
- CO[C@@]12[C@H](COC(N)=O)C3=C(C(=O)C(C)=C(N)C3=O)N1C[C@@H]1N[C@@H]12 [Mitomycin C] — higher, 4.69
- CCNC(=O)c1noc(-c2cc(C(C)C)c(O)cc2O)c1-c1ccc(CN2CCOCC2)cc1 [NVP-AUY922] — higher, 20.9
- Cc1cn(-c2cc(NC(=O)c3ccc(C)c(Nc4nccc(-c5cccnc5)n4)c3)cc(C(F)(F)F)c2)cn1 [Nilotinib] — lower, 0
- C=CCN(/C=C1/C(=O)O[C@H](COC)[C@@]2(C)C1=C(O)C(=O)C1=C2[C@H](OC(C)=O)C[C@]2(C)C(=O)CC[C@@H]12)CC=C [PX-866] — lower, 0
- CC[C@H](CO)Nc1nc(NCc2ccccc2)c2ncn(C(C)C)c2n1 [Roscovitine] — lower, 0

tested on: CAL-148; experiment: as above; settings: incubation time: 72 h
Outline: as §1

Point of comparison: `CC[C@H](CO)Nc1nc(NCc2ccccc2)c2ncn(C(C)C)c2n1` [Roscovitine], drug sensitivity score 0. Against it:
- COc1c2occc2cc2ccc(=O)oc12 [Methoxsalen] — higher, 1.28
- CO[C@@H]1[C@H](N(C)C(=O)c2ccccc2)C[C@H]2O[C@]1(C)n1c3ccccc3c3c4c(c5c6ccccc6n2c5c31)C(=O)NC4 [Midostaurin] — the same, 0
- CO[C@@]12[C@H](COC(N)=O)C3=C(C(=O)C(C)=C(N)C3=O)N1C[C@@H]1N[C@@H]12 [Mitomycin C] — higher, 5.96
- CCNC(=O)c1noc(-c2cc(C(C)C)c(O)cc2O)c1-c1ccc(CN2CCOCC2)cc1 [NVP-AUY922] — higher, 18.1
- CC1(C)CCC(c2ccc(Cl)cc2)=C(CN2CCN(c3ccc(C(=O)NS(=O)(=O)c4ccc(N[C@H](CCN5CCOCC5)CSc5ccccc5)c(S(=O)(=O)C(F)(F)F)c4)cc3)CC2)C1 [Navitoclax] — higher, 4.37
- Cc1cn(-c2cc(NC(=O)c3ccc(C)c(Nc4nccc(-c5cccnc5)n4)c3)cc(C(F)(F)F)c2)cn1 [Nilotinib] — the same, 0
- C=CCN(/C=C1/C(=O)O[C@H](COC)[C@@]2(C)C1=C(O)C(=O)C1=C2[C@H](OC(C)=O)C[C@]2(C)C(=O)CC[C@@H]12)CC=C [PX-866] — the same, 0

tested on: MDA-MB-453; experiment: as above; settings: incubation time: 72 h
Outline: as §1

Point of comparison: `CO[C@@H]1[C@H](N(C)C(=O)c2ccccc2)C[C@H]2O[C@]1(C)n1c3ccccc3c3c4c(c5c6ccccc6n2c5c31)C(=O)NC4` [Midostaurin], drug sensitivity score 7.82. Against it:
- COc1c2occc2cc2ccc(=O)oc12 [Methoxsalen] — lower, 1.68
